In patent US12180187B2, “1-phenyl-5-azinylpyrazolyl-3-oxyalkyl acids and their use for controlling unwanted plant growth” (BAYER AKTIENGESELLSCHAFT, priority 2019, dated 2024):

Columns and labels:
VERPE [1] = assay: Post-emergence action against VERPE, 1.28 kg/ha; type: in vivo, Veronica persica; details: dosage 1280 g/ha, visual rating about 3 weeks after treatment vs untreated controls (100% = plants died)
Outline: (§1)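 Weeds grown in sandy loam in a greenhouse were sprayed at the one-leaf stage, 2–3 weeks after sowing, with WP or EC formulations in water containing 0.5% additive at 600 L/ha. About 3 weeks later, damage was scored visually versus untreated controls (0% = like control, 100% = dead).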

DIGSA [2] = assay: Pre-emergence action against DIGSA, 1280 g/ha; type: in vivo, Digitaria sanguinalis; details: visual scoring after about 3 weeks vs untreated controls, 100% = plants have died, 0% = like control plants
Outline: (§2)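 Mono- and dicot weed seeds sown in sandy loam were treated on the covering soil surface with WP or EC formulations plus 0.5% additive at 600 L water/ha. Pots stayed in a greenhouse; damage was scored visually after ~3 weeks as percent versus untreated controls (100% = dead).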

DIGSA [3] = assay: Post-emergence action against DIGSA, 1.28 kg/ha; type: in vivo, Digitaria sanguinalis; details: dosage 1280 g/ha, visual rating about 3 weeks after treatment vs untreated controls
Outline: as §1

KCHSC [4] = assay: Pre-emergence action against KCHSC, 1280 g/ha; type: in vivo, Bassia scoparia; details: scored visually after about 3 weeks vs untreated controls (100% = plants have died)
Excerpt: 1. Pre-Emergence Herbicidal Effect and Crop Plant Compatibility a) Seeds of mono- and dicotyledonous weed plants are placed in plastic pots in sandy loam soil (doubly sown with one species each of mono- or dicotyledonous weed plants per pot) and covered with soil. The compounds of the invention, formulated in the form of wettable powders (WP) or as emulsion concentrates (EC), are then applied onto the surface of the covering soil as aqueous suspension or emulsion with addition of 0.5% additive at a water application rate equivalent to 600 litres per hectare. After the treatment, the pots are placed in a greenhouse and kept under good growth conditions for the trial plants. After about 3 weeks, the effect of the preparations is scored visually in comparison with untreated controls as percentages. For example, 100% activity=the plants have died, 0% activity=like control plants. 1. Pre-Emergence Effectiveness Tables 1 to 12 below show the effects of selected compounds of the general formula (I) according to Tables 1 and 2 on various harmful plants and at an application rate corresponding to 1280 g/ha, which were obtained by the experimental procedure mentioned above.

POAAN [5] = assay: Pre-emergence action against POAAN, 1280 g/ha; type: in vivo, Poa annua; details: visual scoring after about 3 weeks vs untreated controls, 100% = plants have died, 0% = like control plants
Outline: as §2

AMARE [6] = assay: Pre-emergence action against AMARE, 1280 g/ha; type: in vivo, Amaranthus retroflexus; details: scored visually after about 3 weeks vs untreated controls (100% = plants have died)
Outline: as §2

STEME [7] = assay: Post-emergence action against STEME, 1.28 kg/ha; type: in vivo, Stellaria media; details: dosage 1280 g/ha, visual rating about 3 weeks after treatment vs untreated controls (100% = plants died)
Outline: as §1

STEME [8] = assay: Pre-emergence action against STEME, 1280 g/ha; type: in vivo, Stellaria media; details: scored visually after about 3 weeks vs untreated controls (100% = plants have died)
Outline: as §2

AMARE [9] = assay: Post-emergence action against AMARE, 1.28 kg/ha; type: in vivo, Amaranthus retroflexus; details: dosage 1280 g/ha, visual rating about 3 weeks after treatment vs untreated controls (100% = plants died)
Outline: as §1

ECHCG [10] = assay: Pre-emergence action against ECHCG, 1280 g/ha; type: in vivo, Echinochloa crus-galli; details: visual scoring after about 3 weeks vs untreated controls, 100% = plants have died, 0% = like control plants
Outline: as §2

MATIN [11] = assay: Pre-emergence action against MATIN, 1280 g/ha; type: in vivo, Tripleurospermum inodorum (Matricaria inodora); details: scored visually after about 3 weeks vs untreated controls (100% = plants have died)
Outline: as §2

POAAN [12] = assay: Post-emergence action against POAAN, 1.28 kg/ha; type: in vivo, Poa annua; details: dosage 1280 g/ha, visual rating about 3 weeks after treatment vs untreated controls
Outline: as §1

ABUTH = assay: Post-emergence action against ABUTH, 1.28 kg/ha; type: in vivo, Abutilon theophrasti; details: dosage 1280 g/ha, visual rating about 3 weeks after treatment vs untreated controls (100% = plants died)
Outline: as §1

MATIN [13] = assay: Post-emergence action against MATIN, 1.28 kg/ha; type: in vivo, Tripleurospermum inodorum (Matricaria inodora); details: dosage 1280 g/ha, visual rating about 3 weeks after treatment vs untreated controls (100% = plants died)
Outline: as §1

KCHSC [14] = assay: Post-emergence action against KCHSC, 1.28 kg/ha; type: in vivo, Bassia scoparia; details: dosage 1280 g/ha, visual rating about 3 weeks after treatment vs untreated controls (100% = plants died)
Procedure: • a) Seeds of mono- and dicotyledonous weed plants are placed in plastic pots in sandy loam soil (twin sowing with one species each of mono- or dicotyledonous weed plants per pot), covered with soil and cultivated in a greenhouse under controlled growth conditions. 2 to 3 weeks after sowing, the test plants are treated at the one-leaf stage. The compounds of the invention, formulated in the form of wettable powders (WP) or as emulsion concentrates (EC), are applied to the green parts of the plants as aqueous suspension or emulsion with addition of 0.5% additive at a water application rate equivalent to 600 litres per hectare. After the test plants have been kept in the greenhouse under optimum growth conditions for about 3 weeks, the activity of the preparations is rated visually in comparison to untreated controls. For example, 100% activity=the plants have died, 0% activity=like control plants. As shown by the results, compounds of the general formula (I) of the invention, in post-emergence treatment, have very good herbicidal efficacy (90% to 100% herbicidal action) against harmful plants such as Abutilon theophrasti, Digitaria sanguinalis, Echinochloa crus-galli, Matricaria inodora, Poa annua, at an application rate of 1.28 kg of active substance per hectare.

SETVI [15] = assay: Pre-emergence action against SETVI, 1280 g/ha; type: in vivo, Setaria viridis; details: visual scoring after about 3 weeks vs untreated controls, 100% = plants have died, 0% = like control plants
Outline: as §2

LOLRI = assay: Pre-emergence action against LOLRI, 1280 g/ha; type: in vivo, Lolium rigidum; details: visual scoring after about 3 weeks vs untreated controls, 100% = plants have died, 0% = like control plants
Outline: as §2

ALOMY [16] = assay: Pre-emergence action against ALOMY, 1280 g/ha; type: in vivo, Alopecurus myosuroides; details: visual scoring after about 3 weeks vs untreated controls, 100% = plants have died, 0% = like control plants
Outline: as §2

ECHCG [17] = assay: Post-emergence action against ECHCG, 1.28 kg/ha; type: in vivo, Echinochloa crus-galli; details: dosage 1280 g/ha, visual rating about 3 weeks after treatment vs untreated controls
Outline: as §1

SETVI [18] = assay: Post-emergence action against SETVI, 1.28 kg/ha; type: in vivo, Setaria viridis; details: dosage 1280 g/ha, visual rating about 3 weeks after treatment vs untreated controls
Outline: as §1

ALOMY [19] = assay: Post-emergence action against ALOMY, 1.28 kg/ha; type: in vivo, Alopecurus myosuroides; details: dosage 1280 g/ha, visual rating about 3 weeks after treatment vs untreated controls
Outline: as §1

VERPE [20] = assay: Pre-emergence action against VERPE, 1280 g/ha; type: in vivo, Veronica persica; details: scored visually after about 3 weeks vs untreated controls (100% = plants have died)
Outline: as §2

Structure (SMILES)	Post-emergence action against VERPE (VERPE [1]) [%]	Pre-emergence action against DIGSA (DIGSA [2]) [%]	Post-emergence action against DIGSA (DIGSA [3]) [%]	Pre-emergence action against KCHSC (KCHSC [4]) [%]	Pre-emergence action against POAAN (POAAN [5]) [%]	Pre-emergence action against AMARE (AMARE [6]) [%]	Post-emergence action against STEME (STEME [7]) [%]	Pre-emergence action against STEME (STEME [8]) [%]	Post-emergence action against AMARE (AMARE [9]) [%]	Pre-emergence action against ECHCG (ECHCG [10]) [%]	Pre-emergence action against MATIN (MATIN [11]) [%]	Post-emergence action against POAAN (POAAN [12]) [%]	Post-emergence action against MATIN (MATIN [13]) [%]	Post-emergence action against KCHSC (KCHSC [14]) [%]	Pre-emergence action against SETVI (SETVI [15]) [%]	Pre-emergence action against LOLRI (LOLRI) [%]	Pre-emergence action against ALOMY (ALOMY [16]) [%]	Post-emergence action against ECHCG (ECHCG [17]) [%]	Post-emergence action against ALOMY (ALOMY [19]) [%]	Pre-emergence action against VERPE (VERPE [20]) [%]	further results
O=C(O)COc1nn(-c2ccccc2F)c(-c2ccnnc2)c1Br [IV-002]	90	90	100	90	100	100	100	100	100	100	100	100	90	90	100	–	–	–	–	–	Post-emergence action against ABUTH (ABUTH): 90%
O=C(COc1nn(-c2ccc(F)cc2F)c(-c2ccc(F)nc2)c1Br)NO [Example X-028]	100	100	–	100	100	100	90	100	–	100	100	100	100	90	100	100	90	100	100	90	Post-emergence action against SETVI (SETVI [18]): 90%
COC(=O)[C@H](C)Oc1nn(-c2ccccc2F)c(-c2cncnc2)c1Br [VI-008]	–	100	100	90	100	100	90	100	–	–	90	100	90	90	100	100	–	–	–	–	Post-emergence action against ABUTH (ABUTH): 90%
CC(Oc1nn(-c2ccccc2F)c(-c2ccc(F)nc2)c1Br)C(=O)O (stereo not drawn) [VII-096]	90	100	100	100	100	100	100	100	100	100	100	100	90	90	100	100	100	90	100	100	Post-emergence action against SETVI (SETVI [18]): 90%
CCOC(=O)COc1nn(-c2ccccc2F)c(-c2cncnc2)c1[N+](=O)[O-] [VI-005]	90	100	–	90	100	100	100	100	90	90	100	100	90	90	100	100	90	90	90	100	Post-emergence action against ABUTH (ABUTH): 90%
O=C(O)COc1nn(-c2ccc(F)cc2)c(-c2ccc(F)nc2)c1C(F)(F)F [VII-125]	100	100	100	100	100	90	90	90	90	100	90	100	90	90	100	100	–	90	100	90	–
COC(=O)CNC(=O)COc1nn(-c2ccc(F)cc2)c(-c2ccc(F)nc2)c1C(F)(F)F [Example X-020]	100	100	–	90	100	90	100	90	100	100	90	100	90	100	100	100	100	100	100	90	Post-emergence action against ABUTH (ABUTH): 90%
CON(C)C(=O)COc1nn(-c2ccc(F)cc2F)c(-c2ccc(F)nc2)c1Br [Example X-025]	100	100	100	100	100	100	–	100	–	100	100	100	90	90	100	100	100	100	100	100	–
